Source: PubChem BioAssay (NCI)
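1) Cells in 96-well plates. 2) Compound, 48 h, 5 concentrations. 3) Linear interpolation between surrounding doses. 4) Unreached endpoint = highest concentration. TGI marks complete inhibition of growth.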

Legend:
Assay in all cases: DTP human tumour cell line panel, 48 h
TK-10 renal = system: TK-10 renal
SK-MEL-5 melanoma = system: SK-MEL-5 melanoma
HL-60(TB) leukemia = system: HL-60(TB) leukemia
DU-145 prostate = system: DU-145 prostate
ACHN renal = system: ACHN renal
HOP-92 NSCLC = system: HOP-92 NSCLC
U251 CNS = system: U251 CNS
LOX IMVI melanoma = system: LOX IMVI melanoma
SN12C renal = system: SN12C renal
SW-620 colon = system: SW-620 colon
OVCAR-3 ovarian = system: OVCAR-3 ovarian
SK-OV-3 ovarian = system: SK-OV-3 ovarian
SF-268 CNS = system: SF-268 CNS
BT-549 breast = system: BT-549 breast
T-47D breast = system: T-47D breast
M14 melanoma = system: M14 melanoma
CCRF-CEM leukemia = system: CCRF-CEM leukemia
OVCAR-4 ovarian = system: OVCAR-4 ovarian
UO-31 renal = system: UO-31 renal
KM12 colon = system: KM12 colon
SNB-19 CNS = system: SNB-19 CNS
UACC-257 melanoma = system: UACC-257 melanoma
IGROV1 ovarian = system: IGROV1 ovarian
RXF 393 renal = system: RXF 393 renal
MOLT-4 leukemia = system: MOLT-4 leukemia
SNB-75 CNS = system: SNB-75 CNS
HS 578T breast = system: HS 578T breast
EKVX NSCLC = system: EKVX NSCLC
SF-539 CNS = system: SF-539 CNS
MCF7 breast = system: MCF7 breast
K-562 leukemia = system: K-562 leukemia
MDA-MB-435 = system: MDA-MB-435
RPMI-8226 leukemia = system: RPMI-8226 leukemia
COLO 205 colon = system: COLO 205 colon
CAKI-1 renal = system: CAKI-1 renal
PC-3 prostate = system: PC-3 prostate
HOP-62 NSCLC = system: HOP-62 NSCLC
NCI-H23 lung = system: NCI-H23 lung
HCT-15 colon = system: HCT-15 colon
MDA-MB-231 breast = system: MDA-MB-231 breast
NCI-H226 lung = system: NCI-H226 lung
NCI/ADR-RES ovarian = system: NCI/ADR-RES ovarian
A498 renal = system: A498 renal
786-0 renal = system: 786-0 renal
OVCAR-5 ovarian = system: OVCAR-5 ovarian
NCI-H460 lung = system: NCI-H460 lung
A549 NSCLC = system: A549 NSCLC
UACC-62 melanoma = system: UACC-62 melanoma
NCI-H522 lung = system: NCI-H522 lung
OVCAR-8 ovarian = system: OVCAR-8 ovarian
MDA-N = system: MDA-N
SF-295 CNS = system: SF-295 CNS
HT29 colon = system: HT29 colon
HCT-116 colon = system: HCT-116 colon

In the case of `O=C(O)CNc1ccc(Cl)c(Cl)c1`, the TGI (TK-10 renal) is reported as 58.7 µM, the TGI (SK-MEL-5 melanoma) is reported as 87.9 µM and the TGI (HL-60(TB) leukemia) is reported as 78.5 µM. It also gave a TGI (DU-145 prostate) of over 100 µM, a TGI (ACHN renal) of 53 µM and a TGI (HOP-92 NSCLC) of 51.6 µM. It also gave a TGI (U251 CNS) of over 100 µM, a TGI (LOX IMVI melanoma) of over 100 µM and a TGI (SN12C renal) of 94.3 µM. It also gave a TGI (SW-620 colon) of 73.9 µM, a TGI (OVCAR-3 ovarian) of 82.4 µM and a TGI (SK-OV-3 ovarian) of over 100 µM. The TGI (SF-268 CNS) was over 100 µM, the TGI (BT-549 breast) was over 100 µM and the TGI (T-47D breast) was over 100 µM. The TGI (M14 melanoma) was over 100 µM, the TGI (CCRF-CEM leukemia) was 84.8 µM and the TGI (OVCAR-4 ovarian) was over 100 µM. It also gave a TGI (UO-31 renal) of 71.1 µM, a TGI (KM12 colon) of 55.1 µM and a TGI (SNB-19 CNS) of over 100 µM. It also gave a TGI (UACC-257 melanoma) of 96.3 µM, a TGI (IGROV1 ovarian) of 26.3 µM and a TGI (RXF 393 renal) of over 100 µM. The TGI (MOLT-4 leukemia) was over 100 µM, the TGI (SNB-75 CNS) was 94.1 µM and the TGI (HS 578T breast) was over 100 µM. The TGI (EKVX NSCLC) was 64.8 µM, the TGI (SF-539 CNS) was over 100 µM and the TGI (MCF7 breast) was 38.7 µM. It also gave a TGI (K-562 leukemia) of 78.4 µM, a TGI (MDA-MB-435) of 79.2 µM and a TGI (RPMI-8226 leukemia) of 55.2 µM. It also gave a TGI (COLO 205 colon) of 41.7 µM, a TGI (CAKI-1 renal) of 50.3 µM and a TGI (PC-3 prostate) of 76 µM. The TGI (HOP-62 NSCLC) was 86.1 µM, the TGI (NCI-H23 lung) was over 100 µM and the TGI (HCT-15 colon) was 95.3 µM. The TGI (MDA-MB-231 breast) was over 100 µM, the TGI (NCI-H226 lung) was over 100 µM and the TGI (NCI/ADR-RES ovarian) was 84.6 µM. It also gave a TGI (A498 renal) of 86.5 µM, a TGI (786-0 renal) of 92.6 µM and a TGI (OVCAR-5 ovarian) of over 100 µM. For the same molecule, the TGI (NCI-H460 lung) was 69.8 µM, the TGI (A549 NSCLC) was over 100 µM and the TGI (UACC-62 melanoma) was 90.4 µM. The TGI (NCI-H522 lung) was 38 µM, the TGI (OVCAR-8 ovarian) was 85.4 µM and the TGI (MDA-N) was 73 µM. It also gave a TGI (SF-295 CNS) of 75.9 µM, a TGI (HT29 colon) of over 100 µM and a TGI (HCT-116 colon) of 44.7 µM.
